± gives the standard deviation of the averaged measurements.
Tests used:
[1] = compound: FC(F)(F)COC(OCC(F)(F)F)OCC(F)(F)F [tris(Trifluoroethoxy)methane]; experiment: level (log10 ratio to DMSO vehicle control); higher = higher biomarker level / cell amount than vehicle control; conditions: in DMSO
Experimental: (§1)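 BioMAP Diversity Plus panel of 12 human primary cell co-culture systems (3C, 4H, LPS, SAg, BT, BF4T, BE3C, CASM3C, HDF3CGF, KF3CT, MyoF, Mphg). Compounds were added 1 h before stimulation and left for 24 h (MyoF 48 h; BT 72 h for soluble read-outs or 6 d for IgG). Biomarkers were read by ELISA, cytotoxicity by SRB, PBMC viability and proliferation by Alamar Blue. Each well value was divided by the mean of 8 DMSO control wells on the same plate and log10 transformed; duplicate blinded samples were tested at 4 concentrations.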

[2] = compound: O=C(CC(=O)C(F)(F)C(F)(F)C(F)(F)F)c1cccs1 [(Perfluorobutyryl)-2-thenoylmethane]; experiment: as above; conditions: in DMSO
Experimental: as §1

Test System | level (log10) ([1]; 6700 nM) | level (log10) ([1]; 20000 nM) | level (log10) ([1]; 60000 nM) | level (log10) ([2]; 6700 nM) | level (log10) ([2]; 20000 nM)
BE3C:PAI-I | -0.0015 ± 0.0035 | -0.0005 ± 0.00071 | -0.0045 ± 0.00071 | -0.127 ± 0.023 | -0.363 ± 0.035
KF3CT:MMP-9 | -0.0015 ± 0.016 | -0.0105 ± 0.00071 | 0.004 ± 0.013 | -0.107 ± 0.027 | -0.122 ± 0.012
KF3CT:TIMP-2 | -0.0025 ± 0.021 | -0.007 ± 0.011 | -0.0045 ± 0.012 | -0.0365 ± 0.00071 | -0.05 ± 0.016
KF3CT:CXCL10/IP-10 | 0.005 ± 0.0042 | -0.0045 ± 0.0064 | -0.0025 ± 0.005 | -0.0205 ± 0.00071 | -0.018 ± 0.0014
lMphg:CCL2/MCP-1 | -0.01 ± 0.023 | 0.0005 ± 0.011 | 0.018 ± 0.035 | -0.047 ± 0.031 | -0.27 ± 0.056
HDF3CGF:EGFR | -0.0265 ± 0.015 | -0.016 ± 0.054 | -0.016 ± 0.0085 | -0.101 ± 0.073 | -0.0595 ± 0.018
KF3CT:IL-1alpha | -0.0045 ± 0.0078 | -0.0055 ± 0.0092 | 0.0055 ± 0.019 | 0.0165 ± 0.005 | 0.009 ± 0.0028
HDF3CGF:Collagen I | 0.0165 ± 0.061 | 0.0025 ± 0.042 | 0.0345 ± 0.03 | -0.0265 ± 0.04 | -0.185 ± 0.0071
BE3C:SRB | -0.002 ± 0.0028 | 0.005 ± 0.0057 | -0.002 ± 0.0085 | -0.02 ± 0.0071 | -0.031 ± 0.0071
CASM3C:IL-6 | -0.019 ± 0.0028 | -0.0295 ± 0.011 | 0.005 ± 0.067 | -0.006 ± 0.028 | -0.068 ± 0.013
lMphg:CD106/VCAM-1 | 0.0065 ± 0.0035 | 0.023 ± 0.0099 | -0.0145 ± 0.0092 | -0.006 ± 0.0057 | -0.0715 ± 0.036
CASM3C:CD141/Thrombomodulin | -0.0075 ± 0.0092 | -0.006 ± 0.025 | -0.0125 ± 0.019 | 0.0115 ± 0.09 | -0.008 ± 0.1
CASM3C:SRB | -0.0005 ± 0.011 | -0.0065 ± 0.013 | -0.0095 ± 0.013 | 0.0105 ± 0.0064 | -0.0125 ± 0.0078
lMphg:CD62E/E-Selectin | 0.023 ± 0.082 | -0.0245 ± 0.076 | -0.0085 ± 0.076 | -0.0485 ± 0.054 | -0.123 ± 0.034
KF3CT:PAI-I | -0.0035 ± 0.0035 | -0.006 ± 0.0014 | 0.0025 ± 0.0092 | -0.035 ± 0.0071 | -0.058 ± 0.013
HDF3CGF:CXCL10/IP-10 | 0.0005 ± 0.0092 | -0.002 ± 0.0071 | -0.015 ± 0.0057 | -0.01 | -0.141 ± 0.012
HDF3CGF:PAI-I | -0.0115 ± 0.0021 | -0.025 ± 0.023 | 0.0175 ± 0.018 | 0.0475 ± 0.052 | -0.0845 ± 0.046
KF3CT:CD54/ICAM-1 | -0.015 | -0.021 ± 0.0014 | -0.006 ± 0.023 | -0.0335 ± 0.00071 | -0.0115 ± 0.023
HDF3CGF:CXCL9/MIG | 0.007 ± 0.0099 | 0.002 ± 0.0071 | -0.017 ± 0.018 | -0.0495 ± 0.012 | -0.0855 ± 0.0064
HDF3CGF:CXCL8/IL-8 | -0.003 ± 0.0028 | -0.0005 ± 0.005 | 0.002 ± 0.0099 | 0.01 ± 0.0014 | 0.015 ± 0.0071

Reference: the supplement of paper PMC10331698
